Measured values taken from patent US11969412B2, “Methods and compounds for the treatment or prevention of hypercytokinemia and severe influenza” (Poolbeg Pharma (UK) Limited, priority 2017, dated 2024).
Where two headings read alike, the source gives them in different places.

Assays:
[1] = test system: immune cells (PBMCs plus granulocytes stimulated with A549 viral soup); experiment: cells; assay type: cell-based, human
p38MAPK [2] = experiment: Western blotting of HSP27 phosphorylation in HUVEC cells after HBEC viral soup; assay type: cell-based, human; conditions: pre-incubation, western blot
Method: For western blotting confluent cells were washed in PBS and lysed in RIPA with protease inhibitor (Sigma-P8340), phosphatase inhibitor cocktails 2 and 3 (Sigma P5726 and P0044) and phosphatase inhibitors Na3VO4 and NaF on ice. […] The membranes were treated with Amersham ECL Prime Western Blotting Detection Reagent (GE/Amersham #RPN2232) and imaged using ChemiDoc™ Touch Imaging System (BIORAD). Analysis was performed using the Image Lab software.
In vitro data were generated from HUVEC cells to test the effect of HBEC viral soup application on p38 activation as measured by western blotting of the phosphorylation status of the p38MAPK downstream signalling target, HSP27.

immune cells (PBMCs) = assay type: cell-based, human
p38MAPK [3] = experiment: Western blotting of HSP27 phosphorylation in immune cells (PBMCs) after A549 viral soup; assay type: cell-based, human; conditions: pre-incubation, western blot
p38MAPK [4] = experiment: Western blotting of p38MAPK and HSP27 phosphorylation in A549 cells after A549 viral soup; assay type: cell-based, human; conditions: western blot
Method: In vitro data were generated from A549 cells to test the effect of A549 viral soup application on p38 activation as measured by western blotting of the phosphorylation status of p38MAPK itself and downstream signalling target, HSP27. For western blotting confluent cells were washed in PBS and lysed in RIPA with protease inhibitor (Sigma-P8340), phosphatase inhibitor cocktails 2 and 3 (Sigma P5726 and P0044) and phosphatase inhibitors Na3VO4 and NaF on ice. Protein concentrations were determined using the Pierce BCA Protein Assay Kit and equal concentrations of each sample created in 4× Laemmli sample buffer (BIO-RAD 161-0747) with 2-mercaptoethanol. Samples were run on a 12% gel and then transferred on to nitrocellulose. Membranes were blocked using 5% milk powder, then hybridised with p38 MAPK rabbit antibody (Cell Signalling Technologies, cat. no. 9212S) and phosphorylated p38 MAPK rabbit antibody (Cell Signalling Technologies, cat. no. 9211S), or HSP27 antibody (Cell signalling Technologies, cat. no. 2402) and phospho-HSP27 antibody (Cell signalling Technologies, cat. no. 9709). Secondary antibodies were anti-rabbit HRP (Cell signalling Technologies catalogue no. CS7074P2) and anti-mouse HRP (Cell signalling, catalogue no. 7076S), respectively. Membranes were stripped for re-probing using Restore™ PLUS Western Blot Stripping Buffer (Life technologies #46430). […]

influenza virus = conditions: cited from earlier work; for survival rate at Day 20 of infection: controls 14%
[5] = test system: endothelial cells (HUVECs); experiment: cells; assay type: cell-based, human
HBEC cells = experiment: Inflammatory mediator production in HBEC cells after HBEC viral soup (MSD analysis); assay type: cell-based, human; conditions: HBECs treated prior to HBEC viral soup
[6] = Homo sapiens, A549, read-out: IC50 IL1B
[7] = Homo sapiens, A549, read-out: IC50 IL6
[8] = Homo sapiens, A549, read-out: IC50 IL8
[9] = Homo sapiens, A549, read-out: IC50 TNFa
[10] = Homo sapiens, HUVEC, read-out: IC50 IL10

Compound: CC[C@H]1OC(=O)[C@H](C)[C@@H](O[C@H]2C[C@@](C)(OC)[C@@H](O)[C@H](C)O2)[C@H](C)[C@@H](O[C@@H]2O[C@H](C)C[C@H](N(C)C)[C@H]2O)[C@](C)(O)C[C@@H](C)CN(C)[C@H](C)[C@@H](O)[C@]1(C)O [Azithromycin]
- iMax IL1B [1]: 50%
- iMax IL6 [1]: 45%
- iMax IL8 [1]: 46%
- iMax TNFa [1]: 63%
- IC50 [1, 6]: 0.5 nM
- IC50 [1, 7]: 119 nM
- IC50 [1, 8]: 0.8 nM
- IC50 [1, 9]: 86.9 nM

Compound: Cc1cc(F)ccc1-c1nc(NC(CO)CO)nc2c1ccc(=O)n2-c1c(F)cccc1F [Dilmapimod]
- induction of HSP27 phosphorylation (p38MAPK [2]): dose dependently inhibit
- A549 viral soup induced release of TNFα, IL-1-β, IL-6 and CXCL8 (immune cells (PBMCs)): significantly attenuate
- induction of HSP27 phosphorylation (p38MAPK [3]): dose dependently inhibit
- induction of both p38MAPK and HSP27 phosphorylation (p38MAPK [4]): dose dependently inhibit

Compound: CC[C@H]1OC(=O)[C@H](C)[C@@H](O[C@H]2C[C@@](C)(OC)[C@@H](O)[C@H](C)O2)[C@H](C)[C@@H](O[C@@H]2O[C@H](C)C[C@H](N(C)C)[C@H]2O)[C@](C)(O)C[C@@H](C)C(=O)[C@H](C)[C@@H](O)[C@]1(C)O [EM]
- survival rate at Day 20 of infection (influenza virus; 1.0 mg/kg/d): 42%
- survival rate of mice infected with influenza virus (influenza virus; 3.3 mg/kg/d intraperitoneally, Days 1-6 after infection): significantly improved
- survival rate at Day 20 of infection (influenza virus; 3.3 mg/kg/d): 57%

Compound: Cn1cc2c(-c3ccc(F)cc3)c(-c3ccncc3)c(-c3ccc(F)cc3)nc2n1 [Formula III]
- production of IL-8 and IP-10 [5]: attenuate
- production of TNFα and IL-8 (immune cells (PBMCs)): attenuate
- release of IL-6 and IP-10 (HBEC cells): attenuated

Compound: OCCCn1cc2c(-c3ccc(F)cc3)c(-c3ccncc3)c(-c3ccc(F)cc3)nc2n1 [Formula II]
- attenuating the inflammatory response in endothelial cells, compared with Formula III [5]: consistently better effects than the compound of Formula III
- production of IL-8 and IP-10 [5]: attenuate
- attenuating the inflammatory response in immune cells, compared with Formula III (immune cells (PBMCs)): consistently better effects than the compound of Formula III
- production of MIP-1a and IL-8 (TNFa plus IL-6 as stimulus) and TNFa and IL-8 (A549 virus soup as stimulus) (immune cells (PBMCs)): attenuate

Compound: C[C@H]1C[C@@H]2[C@H]([C@@H](O)C[C@@]3(C)[C@H]2CC[C@]3(O)C(=O)CO)[C@@]2(C)C=CC(=O)C=C12 [Methyl Prednisolone]
- iMax IL1B [1]: 77%
- iMax IL6 [1]: 57%
- iMax IL8 [1]: 90%
- iMax TNFa [1]: 79%
- IC50 [1, 6]: 8.4 nM
- IC50 [1, 7]: 36.6 nM
- IC50 [1, 8]: 8.4 nM
- IC50 [1, 9]: 20.2 nM

Compound: CNC(=O)c1ccc(C)c(-n2c(C)cc(OCc3ccc(F)cc3F)c(Br)c2=O)c1 [PH797804]
- iMax IL8 [5]: 86%
- iMax IL10 [5]: 88%
- iMax MCP1 [5]: 36%
- IC50 ([5]; Homo sapiens, HUVEC, read-out: IC50 IL8): 28.9 nM
- IC50 [5, 10]: 7.5 nM
- IC50 ([5]; Homo sapiens, HUVEC, read-out: IC50 MCP1): 13.1 nM
- A549 viral soup induced release of TNFα, IL-1-β, IL-6 and CXCL8 (immune cells (PBMCs)): significantly attenuate
- iMax IL1B [1]: 79%
- iMax IL8 [1]: 87%
- iMax TNFa [1]: 91%
- IC50 [1, 6]: 9.7 nM
- IC50 [1, 8]: 2.3 nM
- IC50 [1, 9]: 3.9 nM
- induction of both p38MAPK and HSP27 phosphorylation (p38MAPK [4]): dose dependently inhibit

Compound: CCc1ccc(CCOc2ccc(CC3SC(=O)NC3=O)cc2)nc1 (centres unmarked) [Pioglitazone]
- iMax IL6 [1]: 41%
- iMax IL8 [1]: 37%
- IC50 [1, 7]: 0.02 nM
- IC50 [1, 8]: 0.1 nM

Compound: CC[C@H](C)C(=O)O[C@H]1C[C@H](O)C=C2C=C[C@H](C)[C@H](CC[C@@H](O)C[C@@H](O)CC(=O)O)[C@H]21 [Pravastatin]
- iMax IL10 [5]: 35%
- IC50 [5, 10]: 78 nM

Compound: Nc1ccc2ncnc(NCCc3ccc(Oc4ccccc4)cc3)c2c1 [QNZ (EVP4593)]
- iMax IL8 [5]: 60%
- iMax IL10 [5]: 72%
- iMax MCP1 [5]: 44%
- IC50 ([5]; read-out: IC50 IL8): 6.5 nM
- IC50 ([5]; read-out: IC50 IL10): 3.3 nM
- IC50 ([5]; read-out: IC50 MCP1): 3.84 nM
- iMax IL8 [1]: 47%
- iMax TNFa [1]: 37%
- IC50 ([1]; read-out: IC50 IL8): 0.2 nM
- IC50 ([1]; read-out: IC50 TNFa): 43.6 nM

Compound: COc1cc(F)c(F)c(Nc2ccc(I)cc2F)c1NS(=O)(=O)C1(C[C@H](O)CO)CC1 [Refametinib]
- dose-dependent inhibition of IP10 production [5]: Neither Refametinib nor Selumetinib showed dose-dependent inhibition
- levels of IP10 at higher drug concentrations [5]: appeared to increase

Compound: O=C(Nc1c(Cl)cncc1Cl)c1ccc(OC(F)F)c(OCC2CC2)c1 [Roflumilast]
- iMax IL8 [1]: 31%
- iMax TNFa [1]: 74%
- IC50 [1, 8]: 0.09 nM
- IC50 [1, 9]: 10.8 nM

Compound: Selumetinib
- dose-dependent inhibition of IP10 production [5]: Neither Refametinib nor Selumetinib showed dose-dependent inhibition
- levels of IP10 at higher drug concentrations [5]: appeared to increase
